According to publication PMC3347614 (Acta Naturae, 2011):
“Also recorded” adds a separate entry of the source.

What follows are compounds tested against T1, DNA gyrase (Escherichia coli, UniProt P0AES4+P0AES6) (assay: Inhibition of DNA gyrase supercoiling of relaxed plasmid pBR322 (agarose gel electrophoresis)). Settings: qualitative statement.
T1 construct: His6 (N); made in house; host or cells: Escherichia coli Rosetta (DE3)
Format: biochemical, E. coli
Experimental: The reaction mixture (30 µl) contained 35 mM Tris-HCl (pH 7.5), 24 mM KCl, 4 mM MgCl 2 , 1.4 mM ATP, 5 mM DTT, 1.8 mM spermidine, and 0.1 mg/ml of a bovine serum albumin. A mixture of DNA gyrase A and B subunits (0.4 µg) and 0.25–0.5 µg of the substrate (relaxed plasmid pBR322) were added to the reaction probe. The reaction was performed for 60 min at 25°C (for multiple samples, 96-well plates were used). After the reaction was completed, the samples were extracted with an equal volume of chloroform (30 µl). Then, 7 µl of the mixture containing […], 25% of glycerol, and 0.25% of bromphenol blue were added to the aqueous phase. The mixture was applied on a 1.2% agarose gel in TAE buffer (40 mM Tris-acetate, pH 8.0, 2 mM EDTA) and analyzed with electrophoresis (50 V, 2 h). The products were visualized under UV-light after staining with ethidium bromide. The activity of the enzyme (%) was determined from the intensity of the band corresponding to the super-coiled form of plasmid pBR322 and estimated using the Total Lab v2.01 software.
An equal volume of DMSO was added to the control. The reaction was started upon addition of DNA gyrase (0.4 µg) and relaxed plasmid pBR322 (0.25–0.5 µg), which was used as a substrate, and performed as described above. Calculations were made using the Total Lab v2.01 program.

T1 sequence (P0AES4 whole entry, one chain of several): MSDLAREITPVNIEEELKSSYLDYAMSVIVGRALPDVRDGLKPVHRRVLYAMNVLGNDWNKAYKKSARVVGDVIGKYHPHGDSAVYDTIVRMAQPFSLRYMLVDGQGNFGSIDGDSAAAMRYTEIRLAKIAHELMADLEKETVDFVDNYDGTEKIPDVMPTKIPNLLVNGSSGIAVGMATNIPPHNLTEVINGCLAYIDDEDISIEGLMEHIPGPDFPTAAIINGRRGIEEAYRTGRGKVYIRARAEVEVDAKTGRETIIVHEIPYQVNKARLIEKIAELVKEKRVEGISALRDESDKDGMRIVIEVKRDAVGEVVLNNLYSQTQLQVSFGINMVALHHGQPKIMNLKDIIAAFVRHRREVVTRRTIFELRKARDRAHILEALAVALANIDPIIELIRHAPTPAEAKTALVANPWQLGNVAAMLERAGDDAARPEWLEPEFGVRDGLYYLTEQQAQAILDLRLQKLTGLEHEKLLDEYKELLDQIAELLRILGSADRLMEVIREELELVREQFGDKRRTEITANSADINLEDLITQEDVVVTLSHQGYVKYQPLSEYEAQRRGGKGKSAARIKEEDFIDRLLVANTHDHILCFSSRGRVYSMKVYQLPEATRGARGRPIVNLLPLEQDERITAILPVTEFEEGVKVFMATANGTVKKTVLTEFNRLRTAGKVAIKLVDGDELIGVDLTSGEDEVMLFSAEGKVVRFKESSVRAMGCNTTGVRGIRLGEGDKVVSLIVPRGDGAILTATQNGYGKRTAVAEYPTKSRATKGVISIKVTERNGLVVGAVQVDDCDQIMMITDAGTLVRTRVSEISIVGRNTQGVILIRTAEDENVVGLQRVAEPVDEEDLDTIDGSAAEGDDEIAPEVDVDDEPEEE

Row | SMILES | Inhibitory activity towards DNA gyrase, in words
1 | CC1COc2c(ccc(F)c2F)N1 (racemic) [IOS-RS, (R,S)-7,8-Difluoro-3-methyl-2,3-dihydro-4H-benzo[b][1, 4]-oxazine] | no significant activity
2 | CCOC(=O)c1cn2c3c(c(F)c(F)cc3c1=O)OC[C@@H]2C [IOS-E, Ethyl ester of (3S)-(-)-9,10-difluoro-3-methyl-7-oxo-2,3-dihydro-7H-pyrido[1,2,3-d,e][1, 4]-benzoxazine-6-carboxylic acid] | no significant activity; also recorded: practically inactive
3 | C[C@H]1COc2c(F)c(F)cc3c(=O)c(C(=O)O)cn1c23 [IOS-K, (3S)-(-)-Difluoro-3-methyl-7-oxo-2,3-dihydro-7H-pyrido[1,2,3-d,e][1, 4]-benzoxazine-6-carboxylic acid] | significant inhibitory activity
4 | CCn1cc(C(=O)O)c(=O)c2cc(F)c(N3CCNCC3)cc21 [IOS-NORFL_01, norfloxacin, reference compound] | poor inhibitor
5 | C[C@H]1COc2c(ccc(F)c2F)N1 [IOS-S, (3S)-2,3-Dihydro-3-methyl-7,8-difluoro-1,4-benzoxazine] | no significant activity

Same assay, conditions: relative to levofloxacin, in words

Row | SMILES | Activity towards DNA gyrase compared with that of levofloxacin
6 | CN1C2=Nn3cc(C(=O)O)c(=O)c4c(F)c(F)c(N5CCCC5)c(c43)N2c2cc(F)c(F)cc21 [EV-465] | two orders of magnitude
7 | C[C@H]1COc2c(F)c(F)cc3c(=O)c(C(=O)O)cn1c23 [IOS-K, (3S)-(-)-Difluoro-3-methyl-7-oxo-2,3-dihydro-7H-pyrido[1,2,3-d,e][1, 4]-benzoxazine-6-carboxylic acid] | lower by an order of magnitude

Same assay, conditions: relaxed pBR322, 60 min, 25°C

Row | SMILES | I50 (inhibition activity towards DNA gyrase)
8 | CCOC(=O)c1cn2c3c(c(F)c(F)cc3c1=O)OC(c1cccnc1)=N2 [EV-313-D] | EV-313-D Inactive
9 | O=C(O)c1cn2c3c(c(N4CCCC4)c(F)cc3c1=O)OC(c1cccc([N+](=O)[O-])c1)=N2 [EV-452-D] | EV-452-D Inactive
10 | O=C(O)c1cn2c3c(c(N4CCOCC4)c(F)cc3c1=O)SC(NC1CCCCC1)=N2 [EV-572] | EV-572 Inactive
11 | O=C(O)c1cn2c3c(c(F)c(F)cc3c1=O)NC(c1ccccc1)=N2 [EV-591] | EV-591 Inactive
12 | O=C(C(=C1Nc2ccccc2N1)c1nc(=O)c2cc(F)c(F)c(F)c2s1)c1ccccc1 [EV-N51-B] | EV-N51-B Inactive
13 | O=c1nc(Nc2ncccn2)sc2c(F)c(F)c(F)cc12 [EV-N119-2] | EV-N119-2 Inactive
14 | O=c1[nH]c(N/N=C/c2ccccc2O)nc2c(F)c(N3CCCC3)c(F)cc12 [EV-T143-B] | EV-T143-B Inactive
15 | Oc1ccccc1/C=N\Nc1nc(-c2ccccc2)nc2cccc(F)c12 [EV-T150-C] | EV-T150-C Inactive
16 | O=c1c2cc(F)c(F)cc2nc(/C=C/c2ccccc2O)n1-c1ccccc1 [EV-T156] | EV-T156 Inactive
17 | CCSc1nc(Nc2ccc(F)c(F)c2)c2cc(F)c(F)c(F)c2n1 [EV-X58-A] | EV-X58-A Inactive
18 | CC(C)(C)c1cc(-n2c(-c3ccccc3)nc3cc(F)c(F)cc3c2=O)no1 [EV-X149] | EV-X149 Inactive

Same assay, conditions: relaxed pBR322, 60 min, 25°C; read-out: I50 (inhibition activity towards DNA gyrase)

Row | SMILES | IC50 [µM]
19 | CN1C2=Nn3cc(C(=O)O)c(=O)c4c(F)c(F)c(N5CCCC5)c(c43)N2c2cc(F)c(F)cc21 [EV-465] | > 63.4
